Measured values published in patent publication US20250129095A1, “ANNULATED 2-AMINO-3-CYANO THIOPHENES AND DERIVATIVES FOR THE TREATMENT OF CANCER” (Boehringer Ingelheim Int'l GmbH Corp., priority 2021, published 2025).
pIC50: −log10 of the molar value. ≈ marks a conversion by molar mass, not a printed value. Where two headings read alike, the source gives them in different places.

Legend:
SK-CO-1 cells = assay: SK-CO-1 CTG proliferation assay (120 h) (CRC, G12V); assay type: cell-based; details: Homo sapiens
Protocol: (§1) SK-CO-1 cells (ATCC HTB-39) are dispensed into 384-well plates, flat and clear bottom (Greiner, PNr. 781091) at a density of 500 cells per well in 60 μL EMEM (Sigma M5650)+10% Fetal Calf Serum (HyClone, PNr.: SH30084.03) and incubated at 37° C. in a CO2 incubator overnight. The next day, compounds (10 mM stock in DMSO) are added with the ECHO acoustic liquid handler system (Beckman Coulter), including DMSO controls. Plates are incubated for 120 h, and cell viability is measured using CellTiter-Glo luminescent cell viability reagent (Promega product code G7570). Viability (stated as percent of control) is defined as relative luminescence units RLU of each well divided by the RLU of cells in DMSO controls.

KRAS G12V Ba/F3 = KRAS G12V Ba/F3 (Homo sapiens, UniProt P01116, G12V, cells depend on it); assay: Ba/F3 proliferation assay, KRAS G12V; assay type: cell-based; details: 72 h, AlamarBlue, read-out: KRAS G12V Ba/F3 IC50
Protocol: (§2) Plasmids containing KRASG12 mutants(i.e. G12D, G12C, G12V) are obtained from GeneScript. To generate KRASG12-dependent Ba/F3 models, Ba/F3 cells are transduced with retroviruses containing vectors that harbor KRASG12 isoforms. Platinum-E cells (Cell Biolabs) are used for retrovirus packaging. Retrovirus is added to Ba/F3 cells. To ensure infection, 4 μg/mL polybrene is added and cells are spinfected. […] Cells with an infection efficiency of 10% to 20% are further cultivated and puromycin selection with 1 μg/mL is initiated. As a control, parental Ba/F3 cells are used to show selection status. Selection is considered successful when parental Ba/F3 cells cultures died. To evaluate the transforming potential of KRASG12 mutations, the growth medium is no longer supplemented with IL-3. Ba/F3 cells harboring the empty vector are used as a control. Approximately ten days before conducting the experiments, puromycin is left out.
(§3) Compounds are added using an Access Labcyte Workstation with a Labcyte Echo 550 or 555 accoustic dispenser. All treatments are performed in technical duplicates. […] AlamarBlue™ (ThermoFisher), a viability stain, is added and fluorescence measured in the PerkinElmer Envision HTS Multilabel Reader. The raw data are imported into and analyzed with the Boehringer Ingelheim proprietary software MegaLab (curve fitting based on the program PRISM, GraphPad Inc.).

KRAS G12C Ba/F3 = KRAS G12C Ba/F3 (Homo sapiens, UniProt P01116, G12C, cells depend on it); assay: Ba/F3 proliferation assay, KRAS G12C; assay type: cell-based; details: 72 h, AlamarBlue, read-out: KRAS G12C Ba/F3 IC50
Protocol: as §2, §3

AsPC-1 cells = assay: AsPC-1 CTG proliferation assay (120 h) (pancreatic cancer, G12D); assay type: cell-based; details: Homo sapiens, ASPC1
Protocol: The CTG assay is designed to measure quantitatively the proliferation of AsPC-1 cells (ATCC CRL-5985), using the CellTiter Glow Assay Kit (Promega G7571). Cells are grown in RPMI medium (ATCC) supplemented with Fetal Calf Serum (Life Technologies, Gibco BRL, Cat. No. 10270-106). On “day 0” 2000 AsPC-1 cells are seeded in 60 μL RPMI ATCC+10% FCS+ Penstrep in a 384-well plate, flat and clear bottom (Greiner, PNr. 781091). Cells are then incubated in the plates at 37° C. in a CO2 incubator overnight. On day 1, compounds (10 mM stock in DMSO) are added with the ECHO acoustic liquid handler system (Beckman Coulter), including DMSO controls. Plates are incubated for 120 h, and cell viability is measured using CellTiter-Glo luminescent cell viability reagent (Promega product code G7570). Viability (stated as percent of control) is defined as relative luminescence units RLU of each well divided by the RLU of cells in DMSO controls.

KRAS G12D Ba/F3 = KRAS G12D Ba/F3 (Homo sapiens, UniProt P01116, G12D, cells depend on it); assay: Ba/F3 proliferation assay, KRAS G12D; assay type: cell-based; details: 72 h, AlamarBlue, read-out: KRAS G12D Ba/F3 IC50
Protocol: as §2, §3

[1] = Plasma protein binding assay (PPB), equilibrium dialysis; assay type: in vitro ADME; details: bovine, 10% FCS in PBS, read-out: PPB 10% FCS (% fu)
Protocol: Binding of test compounds to plasma was determined using equilibrium dialysis (ED) and quantitative mass spectrometry interfaced with liquid chromatography (LC-MS). In brief, ED was performed with dialysis devices consisting of two chambers separated by a semipermeable membrane with a molecular weight cut-off of 5-10 kg/mol. One chamber was filled with 10% FCS in PBS containing 1-10 μmol/L test compound and the other chamber was filled with phosphate-buffer saline (PBS) with or without dextran. The dialysis chamber was incubated for 3-5 hours at 37° C. After incubation, protein was precipitated from aliquots of each chamber and the concentration of test compound in the supernatant of the plasma-containing compartment (cserum) and of the buffer-containing compartment (cbuffer) was determined by LC-MS. The fraction of unbound test compound (not bound to plasma) (fu) was calculated according to the following equation: […]

SAS cells = assay: SAS CTG proliferation assay (120 h) (HNSCC, wt amplified); assay type: cell-based
Protocol: as §1, with “SAS” for “SK-CO-1”, “(JCRB0260)” for “(ATCC HTB-39)”, “300” for “500”, “DMEM:F12 (Gibco 31330-038)+10%” for “EMEM (Sigma M5650)+10%”, “overnight” for “overnight.”

[2] = Solubility measurement (DMSO solution precipitation method); assay type: physicochemical; details: aqueous buffer, kinetic from dmso stock
Protocol: The DMSO solution is diluted with an aqueous medium (McIlvaine buffer with pH=4.5 or 6.8) to a final concentration of 250 μM. After 24 h of shaking at ambient temperature a potentially formed precipitate is removed by filtration. The concentration of the test compound in the filtrate is determined by LC-UV methods by calibrating the signal to the signal of a reference solution with complete dissolution of the test compound in acetonitrile/water (1:1) with known concentration.

[3] = McIlvaine buffer pH 4.5, 24 h, read-out: Solubility [μg/ml] pH 4.5
[4] = McIlvaine buffer pH 6.8, 24 h, read-out: Solubility [μg/ml] pH 6.8

KRAS G12D Ba/F3, sequence (P01116 whole entry G12D): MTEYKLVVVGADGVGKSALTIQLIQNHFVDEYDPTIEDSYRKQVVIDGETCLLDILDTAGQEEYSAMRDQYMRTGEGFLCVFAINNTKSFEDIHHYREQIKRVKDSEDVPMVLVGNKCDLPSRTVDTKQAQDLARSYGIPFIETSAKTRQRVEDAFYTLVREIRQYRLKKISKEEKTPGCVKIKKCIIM
KRAS G12V Ba/F3, sequence (P01116 whole entry G12V, canonical isoform): as the sequence (P01116 whole entry G12D) above, with D12V counted along it
KRAS G12C Ba/F3, sequence (P01116 whole entry G12C): as the sequence (P01116 whole entry G12D) above, with D12C counted along it

| pIC50 (SK-CO-1 cells) | GI50 (KRAS G12V Ba/F3) | GI50 (KRAS G12C Ba/F3) | pIC50 (AsPC-1 cells) | GI50 (KRAS G12D Ba/F3) | fraction unbound [1] | solubility at 24 h [2, 3] | solubility at 24 h [2, 4] | SMILES | pIC50 (SAS cells) |
| --- | --- | --- | --- | --- | --- | --- | --- | --- | --- |
| 7.59 | 4 nM | 5 nM | 5.74 | 20 nM | 0.07 | > 109 µg/mL | < 1 µg/mL | C[C@H](Oc1cc(Oc2nccs2)nc(-c2noc3c2CCC[C@@]32CCCc3sc(N)c(C#N)c32)n1)[C@@H]1CCCN1C [II-2] | 7.36 |
| 7.08 | 9 nM | 17 nM | 5.70 | 27 nM | 0.12 | > 138 µg/mL | 42 µg/mL (≈ 73.2 µM) | C[C@H](Oc1cc(Oc2ccon2)nc(-c2noc3c2CCC[C@@]32CCCc3sc(N)c(C#N)c32)n1)[C@@H]1CCCN1C [II-3] | 7.17 |
| 7.55 | 6 nM | 12 nM | 5.56 | 31 nM | 0.54 | 80 µg/mL (≈ 139 µM) | < 1 µg/mL | C[C@H](Oc1cc(O[C@H]2CCOC2)nc(-c2noc3c2CCC[C@@]32CCCc3sc(N)c(C#N)c32)n1)[C@@H]1CCCN1C [II-4] | 7.36 |
| 7.64 | 7 nM | 17 nM | 5.59 | 38 nM | 0.5 | > 140 µg/mL | 108 µg/mL (≈ 191 µM) | COCCOc1cc(O[C@@H](C)[C@@H]2CCCN2C)nc(-c2noc3c2CCC[C@@]32CCCc3sc(N)c(C#N)c32)n1 [II-5] | 7.17 |
| 7.06 | 7 nM | 11 nM | 5.75 | 16 nM | 0.72 | > 121 µg/mL | > 119 µg/mL | C[C@H](Oc1cc(OCCO)nc(-c2noc3c2CCC[C@@]32CCCc3sc(N)c(C#N)c32)n1)[C@@H]1CCCN1C [II-6] | 7.40 |
| 7.68 | 3 nM | 4 nM | 5.52 | 10 nM | 0.28 | > 118 µg/mL | 90 µg/mL (≈ 154 µM) | C[C@H](Oc1cc(Oc2cnccn2)nc(-c2noc3c2CCC[C@@]32CCCc3sc(N)c(C#N)c32)n1)[C@@H]1CCCN1C [II-7] | 5.86 |
| 5.92 | 43 nM | 61 nM | 5.71 | 81 nM | 0.08 | > 107 µg/mL | 95 µg/mL (≈ 178 µM) | C[C@H](Oc1cc(N(C)C)nc(-c2noc3c2CCC[C@@]32CCCc3sc(N)c(C#N)c32)n1)[C@@H]1CCCN1C [II-10] | 6.10 |
| 6.51 | 11 nM | 44 nM | 5.53 | 65 nM | 0.07 | 2 µg/mL (≈ 3.4 µM) | < 1 µg/mL | C[C@H](Oc1cc(Nc2nccs2)nc(-c2noc3c2CCC[C@@]32CCCc3sc(N)c(C#N)c32)n1)[C@@H]1CCCN1C [II-12] | 6.23 |
| 7.16 | 10 nM | 17 nM | 6.02 | 37 nM | 0.2 | > 157 µg/mL | 44 µg/mL (≈ 76.8 µM) | C[C@H](Oc1cc(Nc2ncco2)nc(-c2noc3c2CCC[C@@]32CCCc3sc(N)c(C#N)c32)n1)[C@@H]1CCCN1C [II-13] | 7.34 |
| 6.94 | 7 nM | 15 nM | 5.50 | 59 nM | 0.1 | 67 µg/mL (≈ 115 µM) | 11 µg/mL (≈ 18.8 µM) | C[C@H](Oc1cc(Nc2cnccn2)nc(-c2noc3c2CCC[C@@]32CCCc3sc(N)c(C#N)c32)n1)[C@@H]1CCCN1C [II-14] | 6.55 |
| 7.22 | 10 nM | 19 nM | 5.57 | 33 nM | 0.28 | 67 µg/mL (≈ 115 µM) | < 1 µg/mL | C[C@H](Oc1cc(Nc2ncccn2)nc(-c2noc3c2CCC[C@@]32CCCc3sc(N)c(C#N)c32)n1)[C@@H]1CCCN1C [II-17] | 6.98 |
| 6.03 | 151 nM | 218 nM | 5.85 | 91 nM | 0.12 | > 161 µg/mL | > 164 µg/mL | C[C@H](Oc1cc(O[C@H]2CN(C)C(C)(C)C2)nc(-c2noc3c2CCC[C@@]32CCCc3sc(N)c(C#N)c32)n1)[C@@H]1CCCN1C [II-19] | 6.53 |
| 6.05 | 303 nM | 376 nM | 5.45 | 304 nM | 0.8 | > 144 µg/mL | > 142 µg/mL | C[C@H](Oc1cc(N(C)CCN(C)C)nc(-c2noc3c2CCC[C@@]32CCCc3sc(N)c(C#N)c32)n1)[C@@H]1CCCN1C [II-20] | 6.49 |
| 6.01 | 237 nM | 195 nM | 6.56 | 22 nM | 0.72 | > 143 µg/mL | > 126 µg/mL | C[C@H](Oc1cc(OCC2(N(C)C)CC2)nc(-c2noc3c2CCC[C@@]32CCCc3sc(N)c(C#N)c32)n1)[C@@H]1CCCN1C [II-21] | 6.24 |
| 6.45 | 35 nM | 22 nM | 6.53 | 6 nM | 0.46 | > 168 µg/mL | > 157 µg/mL | C[C@H](Oc1cc(OCC2(N(C)C)COC2)nc(-c2noc3c2CCC[C@@]32CCCc3sc(N)c(C#N)c32)n1)[C@@H]1CCCN1C [II-22] | 7.08 |
